Test results: patent US20120122860A1, “SOLID FORMS OF SULFONAMIDES AND AMINO ACIDS” (Plexxikon, Inc., priority 2009, published 2012)

Key:
[1] = biological target: Src (Homo sapiens, UniProt P12931); test: Kinase activity assay, Src
[2] = biological target: B-Raf (Homo sapiens, UniProt P15056); test: Kinase activity assay, B-Raf; type: biochemical; details: read-out: activity toward kinase B-Raf, IC50
[3] = biological target: Kit (Homo sapiens, UniProt P10721); test: Kinase activity assay, Kit
[4] = biological target: Kdr (Homo sapiens, UniProt P35968); test: Kinase activity assay, Kdr
Chain of Kdr (P35968 20-1356): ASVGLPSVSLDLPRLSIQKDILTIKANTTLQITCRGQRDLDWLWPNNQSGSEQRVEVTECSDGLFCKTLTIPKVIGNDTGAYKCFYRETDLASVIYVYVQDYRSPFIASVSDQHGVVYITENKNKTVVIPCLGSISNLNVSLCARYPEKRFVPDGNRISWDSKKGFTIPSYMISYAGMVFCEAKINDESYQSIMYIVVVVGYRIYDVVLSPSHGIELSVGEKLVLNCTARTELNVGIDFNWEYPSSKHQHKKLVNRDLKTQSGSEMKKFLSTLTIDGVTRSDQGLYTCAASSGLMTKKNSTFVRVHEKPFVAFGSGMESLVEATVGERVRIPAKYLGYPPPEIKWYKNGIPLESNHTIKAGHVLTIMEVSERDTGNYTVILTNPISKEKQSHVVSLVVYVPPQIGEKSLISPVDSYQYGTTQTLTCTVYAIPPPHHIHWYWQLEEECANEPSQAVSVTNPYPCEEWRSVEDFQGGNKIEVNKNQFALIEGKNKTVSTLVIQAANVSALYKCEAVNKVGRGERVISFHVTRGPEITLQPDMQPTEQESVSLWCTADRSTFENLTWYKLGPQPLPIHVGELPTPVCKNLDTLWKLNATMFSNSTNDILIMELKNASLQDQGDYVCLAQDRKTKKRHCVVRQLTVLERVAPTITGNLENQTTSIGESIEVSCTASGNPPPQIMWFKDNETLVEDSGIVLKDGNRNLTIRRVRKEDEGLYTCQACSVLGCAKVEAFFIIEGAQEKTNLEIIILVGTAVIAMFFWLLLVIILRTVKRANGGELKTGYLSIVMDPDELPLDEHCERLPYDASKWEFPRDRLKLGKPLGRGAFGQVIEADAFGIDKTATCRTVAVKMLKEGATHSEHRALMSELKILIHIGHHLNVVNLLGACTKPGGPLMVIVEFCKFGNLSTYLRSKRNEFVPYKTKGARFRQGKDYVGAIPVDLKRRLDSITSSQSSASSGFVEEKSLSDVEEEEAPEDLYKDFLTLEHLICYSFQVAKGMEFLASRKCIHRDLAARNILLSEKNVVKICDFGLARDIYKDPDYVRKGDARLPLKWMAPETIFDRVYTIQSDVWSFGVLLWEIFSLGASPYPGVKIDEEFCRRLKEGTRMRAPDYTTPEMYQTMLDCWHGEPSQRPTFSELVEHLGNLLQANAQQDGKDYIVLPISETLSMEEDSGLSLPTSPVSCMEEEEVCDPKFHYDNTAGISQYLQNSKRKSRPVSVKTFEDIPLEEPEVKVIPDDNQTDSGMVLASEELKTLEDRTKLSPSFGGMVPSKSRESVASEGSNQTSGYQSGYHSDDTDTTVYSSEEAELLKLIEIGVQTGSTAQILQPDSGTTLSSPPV

[5] = biological target: B-Raf V600E (Homo sapiens, UniProt P15056, V600E); test: Kinase activity assay, B-Raf V600E; type: biochemical; details: read-out: activity toward kinase B-Raf V600E, IC50
Chain of B-Raf V600E (P15056 whole entry V600E): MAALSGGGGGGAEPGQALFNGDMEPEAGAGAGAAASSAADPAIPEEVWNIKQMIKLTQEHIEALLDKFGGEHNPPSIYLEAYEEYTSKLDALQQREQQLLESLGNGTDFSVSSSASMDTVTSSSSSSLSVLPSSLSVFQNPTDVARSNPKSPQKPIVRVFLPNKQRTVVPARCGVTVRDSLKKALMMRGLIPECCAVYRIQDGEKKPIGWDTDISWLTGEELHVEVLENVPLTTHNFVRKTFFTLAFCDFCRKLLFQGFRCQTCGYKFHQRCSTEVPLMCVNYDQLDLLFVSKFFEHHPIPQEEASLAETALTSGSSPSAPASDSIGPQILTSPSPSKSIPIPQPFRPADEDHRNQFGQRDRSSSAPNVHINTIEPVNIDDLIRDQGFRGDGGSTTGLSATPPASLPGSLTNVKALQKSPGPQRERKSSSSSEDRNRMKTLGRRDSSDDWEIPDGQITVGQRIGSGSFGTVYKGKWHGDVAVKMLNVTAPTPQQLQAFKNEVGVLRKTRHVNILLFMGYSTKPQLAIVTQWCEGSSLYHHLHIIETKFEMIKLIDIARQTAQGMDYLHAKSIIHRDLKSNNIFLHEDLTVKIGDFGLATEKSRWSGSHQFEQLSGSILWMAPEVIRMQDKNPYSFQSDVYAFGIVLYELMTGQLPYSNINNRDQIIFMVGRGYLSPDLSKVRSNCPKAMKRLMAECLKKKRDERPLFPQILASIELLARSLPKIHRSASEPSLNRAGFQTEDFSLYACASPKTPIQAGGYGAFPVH

[6] = biological target: MAP4K4 (Homo sapiens, UniProt O95819); test: Kinase activity assay, MAP4K4
[7] = biological target: C-Raf (Homo sapiens, UniProt P04049); test: Kinase activity assay, C-Raf
Chain of C-Raf (P04049 whole entry): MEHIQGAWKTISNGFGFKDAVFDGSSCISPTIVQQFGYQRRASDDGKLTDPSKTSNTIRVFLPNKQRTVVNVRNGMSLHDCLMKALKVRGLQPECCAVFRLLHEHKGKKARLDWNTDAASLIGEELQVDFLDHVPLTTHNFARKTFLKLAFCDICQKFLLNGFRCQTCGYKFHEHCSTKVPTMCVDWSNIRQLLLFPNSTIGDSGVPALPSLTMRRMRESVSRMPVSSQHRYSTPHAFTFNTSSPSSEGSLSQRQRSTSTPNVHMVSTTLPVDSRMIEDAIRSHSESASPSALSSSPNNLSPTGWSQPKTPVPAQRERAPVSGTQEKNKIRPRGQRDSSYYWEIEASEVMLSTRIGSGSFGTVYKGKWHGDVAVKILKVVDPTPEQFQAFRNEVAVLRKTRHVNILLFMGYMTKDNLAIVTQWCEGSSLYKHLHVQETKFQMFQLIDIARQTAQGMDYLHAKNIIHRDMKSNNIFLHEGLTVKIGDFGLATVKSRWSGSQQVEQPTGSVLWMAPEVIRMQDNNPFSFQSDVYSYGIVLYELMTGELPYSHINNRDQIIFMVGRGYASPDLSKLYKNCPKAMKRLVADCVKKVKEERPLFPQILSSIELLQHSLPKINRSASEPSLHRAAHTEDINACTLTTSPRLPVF

[8] = biological target: T1, A-Raf (Homo sapiens, UniProt P10398); test: Kinase activity assay, A-Raf
T1 sequence (P10398 1-606): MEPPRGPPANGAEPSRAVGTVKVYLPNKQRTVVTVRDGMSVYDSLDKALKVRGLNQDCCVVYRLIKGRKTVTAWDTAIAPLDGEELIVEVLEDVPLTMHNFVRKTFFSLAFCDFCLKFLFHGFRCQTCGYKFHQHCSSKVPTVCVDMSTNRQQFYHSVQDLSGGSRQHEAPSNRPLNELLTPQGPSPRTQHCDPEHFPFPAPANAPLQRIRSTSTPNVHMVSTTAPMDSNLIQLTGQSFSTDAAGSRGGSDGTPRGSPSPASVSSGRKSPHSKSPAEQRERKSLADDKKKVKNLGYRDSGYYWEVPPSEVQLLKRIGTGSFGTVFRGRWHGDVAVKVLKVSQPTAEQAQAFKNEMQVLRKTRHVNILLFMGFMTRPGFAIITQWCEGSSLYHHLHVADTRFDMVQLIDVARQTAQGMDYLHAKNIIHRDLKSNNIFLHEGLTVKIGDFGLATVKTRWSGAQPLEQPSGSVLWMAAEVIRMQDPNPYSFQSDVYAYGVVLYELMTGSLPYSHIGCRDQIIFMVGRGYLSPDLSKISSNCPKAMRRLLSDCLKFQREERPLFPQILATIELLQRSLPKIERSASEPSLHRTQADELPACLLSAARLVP

Measured: IC50

Chain of Src (P12931 whole entry): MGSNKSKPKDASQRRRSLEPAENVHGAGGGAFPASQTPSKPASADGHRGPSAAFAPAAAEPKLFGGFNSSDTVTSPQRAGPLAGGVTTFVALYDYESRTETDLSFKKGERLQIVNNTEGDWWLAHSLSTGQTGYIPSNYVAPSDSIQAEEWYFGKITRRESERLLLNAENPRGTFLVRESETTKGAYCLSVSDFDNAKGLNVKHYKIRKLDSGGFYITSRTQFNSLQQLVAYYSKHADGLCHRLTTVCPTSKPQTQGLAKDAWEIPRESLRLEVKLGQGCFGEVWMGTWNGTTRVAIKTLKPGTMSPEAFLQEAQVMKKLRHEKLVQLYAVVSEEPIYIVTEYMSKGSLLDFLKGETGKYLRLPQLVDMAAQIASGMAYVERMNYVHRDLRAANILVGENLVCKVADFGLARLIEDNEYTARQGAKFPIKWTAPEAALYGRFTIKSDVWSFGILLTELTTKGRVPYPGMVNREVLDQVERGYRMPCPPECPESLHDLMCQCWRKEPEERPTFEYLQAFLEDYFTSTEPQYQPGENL
Chain of Kit (P10721 26-976): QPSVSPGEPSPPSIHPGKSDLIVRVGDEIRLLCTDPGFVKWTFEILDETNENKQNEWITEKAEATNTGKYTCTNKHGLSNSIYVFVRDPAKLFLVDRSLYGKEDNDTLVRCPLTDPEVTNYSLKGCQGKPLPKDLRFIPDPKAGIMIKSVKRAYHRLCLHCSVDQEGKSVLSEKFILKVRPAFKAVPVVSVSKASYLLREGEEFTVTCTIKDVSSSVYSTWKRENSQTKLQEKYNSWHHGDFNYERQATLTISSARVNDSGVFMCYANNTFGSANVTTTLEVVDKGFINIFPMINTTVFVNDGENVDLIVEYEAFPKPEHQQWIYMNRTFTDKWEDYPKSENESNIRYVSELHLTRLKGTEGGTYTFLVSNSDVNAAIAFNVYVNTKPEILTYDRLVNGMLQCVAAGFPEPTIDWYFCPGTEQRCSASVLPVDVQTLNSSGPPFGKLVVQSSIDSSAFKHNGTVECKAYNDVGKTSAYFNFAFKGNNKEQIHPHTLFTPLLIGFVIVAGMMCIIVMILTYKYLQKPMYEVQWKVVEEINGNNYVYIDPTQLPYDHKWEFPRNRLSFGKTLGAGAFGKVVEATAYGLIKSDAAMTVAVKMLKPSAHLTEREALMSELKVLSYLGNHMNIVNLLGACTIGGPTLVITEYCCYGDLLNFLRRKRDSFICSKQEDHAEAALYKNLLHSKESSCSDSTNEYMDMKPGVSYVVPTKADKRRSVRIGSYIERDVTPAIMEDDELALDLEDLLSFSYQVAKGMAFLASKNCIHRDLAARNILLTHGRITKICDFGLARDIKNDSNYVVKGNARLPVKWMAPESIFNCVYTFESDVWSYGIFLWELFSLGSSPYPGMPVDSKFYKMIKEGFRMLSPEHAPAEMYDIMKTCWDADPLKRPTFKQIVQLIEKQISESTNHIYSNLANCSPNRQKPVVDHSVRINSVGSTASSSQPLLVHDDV
Chain of B-Raf (P15056 whole entry): as the sequence (P15056 whole entry V600E) above, with E600V counted along it

COc1cnc2[nH]cc(C(=O)c3c(F)ccc(NS(=O)(=O)C(F)(F)F)c3F)c2c1 [P-2347, N-[2,4-Difluoro-3-(5-methoxy-1H-pyrrolo[2,3-b]pyridine-3-carbonyl)-phenyl]-C,C,C-trifluoro-methanesulfonamide]
≤ 10 µM: all assays above

O=C(c1c(F)ccc(NS(=O)(=O)N2CCCC2)c1F)c1c[nH]c2ncc(Cl)cc12 [P-2375, Pyrrolidine-1-sulfonic acid [3-(5-chloro-1H-pyrrolo[2,3-b]pyridine-3-carbonyl)-2,4-difluoro-phenyl]-amide]
≤ 10 µM: all assays above

Cc1cnc2[nH]cc(C(=O)c3c(F)ccc(NS(=O)(=O)CCC(F)(F)F)c3F)c2c1 [P-2328, 3,3,3-Trifluoro-propane-1-sulfonic acid [2,4-difluoro-3-(5-methyl-1H-pyrrolo[2,3-b]pyridine-3-carbonyl)-phenyl]-amide]
≤ 10 µM: all assays above

COc1cnc2[nH]cc(C(=O)c3c(F)ccc(NS(=O)(=O)c4ccccc4F)c3F)c2c1 [P-2009, N-[2,4-Difluoro-3-(5-methoxy-1H-pyrrolo[2,3-b]pyridine-3-carbonyl)-phenyl]-2-fluoro-benzenesulfonamide]
≤ 10 µM: all assays above

CCS(=O)(=O)Nc1ccc(F)c(C(=O)c2c[nH]c3nccc(Cl)c23)c1F [P-2276, Ethanesulfonic acid [3-(4-chloro-1H-pyrrolo[2,3-b]pyridine-3-carbonyl)-2,4-difluoro-phenyl]-amide]
not listed: [3]
≤ 10 µM: all other assays above

CS(=O)(=O)Nc1ccc(F)c(C(=O)c2c[nH]c3nccc(Cl)c23)c1F [P-2290, N-[3-(4-Chloro-1H-pyrrolo[2,3-b]pyridine-3-carbonyl)-2,4-difluoro-phenyl]-methanesulfonamide]
≤ 10 µM: all assays above

N#Cc1cnc2[nH]cc(C(=O)c3c(F)ccc(NS(=O)(=O)c4ccccc4F)c3F)c2c1 [P-2011, N-[3-(5-Cyano-1H-pyrrolo[2,3-b]pyridine-3-carbonyl)-2,4-difluoro-phenyl]-2-fluoro-benzenesulfonamide]
≤ 10 µM: all assays above

O=C(c1c(F)ccc(NS(=O)(=O)C2CCCCC2)c1F)c1c[nH]c2nccc(Cl)c12 [P-2367, Cyclohexanesulfonic acid [3-(4-chloro-1H-pyrrolo[2,3-b]pyridine-3-carbonyl)-2,4-difluoro-phenyl]-amide]
not listed: [4]
≤ 10 µM: all other assays above

O=C(c1c(F)ccc(NS(=O)(=O)c2ccccn2)c1F)c1c[nH]c2nccc(Cl)c12 [P-2075, Pyridine-2-sulfonic acid [3-(4-chloro-1H-pyrrolo[2,3-b]pyridine-3-carbonyl)-2,4-difluoro-phenyl]-amide]
not listed: [3]
≤ 10 µM: all other assays above

Cc1cnc2[nH]cc(C(=O)c3c(F)ccc(NS(=O)(=O)c4cccnc4)c3F)c2c1 [P-2069, Pyridine-3-sulfonic acid [2,4-difluoro-3-(5-methyl-1H-pyrrolo[2,3-b]pyridine-3-carbonyl)-phenyl]-amide]
not listed: [3] | [4]
≤ 10 µM: all other assays above

CCCC(C)S(=O)(=O)Nc1ccc(F)c(C(=O)c2c[nH]c3ncc(C)cc23)c1F (stereo not drawn) [P-2315, Pentane-2-sulfonic acid [2,4-difluoro-3-(5-methyl-1H-pyrrolo[2,3-b]pyridine-3-carbonyl)-phenyl]-amide]
not listed: [2] | [7]
≤ 10 µM: all other assays above

CCCS(=O)(=O)Nc1cccc(C(=O)c2c[nH]c3ncc(-c4cnc(N(C)C)nc4)cc23)c1F [P-2408, Propane-1-sulfonic acid {3-[5-(2-dimethylamino-pyrimidin-5-yl)-1H-pyrrolo[2,3-b]pyridine-3-carbonyl]-2-fluoro-phenyl}-amide]
not listed: [3]
≤ 10 µM: all other assays above

COc1ccnc2[nH]cc(C(=O)c3c(F)ccc(NS(=O)(=O)c4ccccn4)c3F)c12 [P-2076, Pyridine-2-sulfonic acid [2,4-difluoro-3-(4-methoxy-1H-pyrrolo[2,3-b]pyridine-3-carbonyl)-phenyl]-amide]
not listed: [3] | [4]
≤ 10 µM: all other assays above

CCS(=O)(=O)Nc1ccc(F)c(C(=O)c2c[nH]c3ncc(C)cc23)c1F [P-2277, Ethanesulfonic acid [2,4-difluoro-3-(5-methyl-1H-pyrrolo[2,3-b]pyridine-3-carbonyl)-phenyl]-amide]
not listed: [3]
≤ 10 µM: all other assays above

N#Cc1cnc2[nH]cc(C(=O)c3c(F)ccc(NS(=O)(=O)c4ccccn4)c3F)c2c1 [P-2063, Pyridine-2-sulfonic acid [3-(5-cyano-1H-pyrrolo[2,3-b]pyridine-3-carbonyl)-2,4-difluoro-phenyl]-amide]
not listed: [3] | [4]
≤ 10 µM: all other assays above

O=C(c1c(F)ccc(NS(=O)(=O)C(F)(F)F)c1F)c1c[nH]c2ncc(Cl)cc12 [P-2346, N-[3-(5-Chloro-1H-pyrrolo[2,3-b]pyridine-3-carbonyl)-2,4-difluoro-phenyl]-C,C,C-trifluoro-methanesulfonamide]
not listed: [3]
≤ 10 µM: all other assays above
